Reference: PubChem BioAssay AID300 (DTP/NCI, 2004)
Values joined by “and” are separate entries in the source; they are usually repeats but may differ in a detail not shown here. Identical values can stand only once. Results filed as inconclusive are left out. The calls were made as follows: active = survival T/C of 150% or more; inactive = T/C below 125% in these data.

Tested on: Madison 109 lung carcinoma i.m., mice, median survival
Experiment: NCI In Vivo Anticancer Drug Screen. Data for tumor model Madison 109 Lung Carcinoma (intramuscular) in unknown mice
Settings: endpoint: median survival time, higher = longer survival
Protocol: The antitumor activity of compounds was measured in mice bearing transplantable tumors. Survival or tumor size were measured and the results are expressed as the measurement made in the treated group (T) divided by the measurement made in the vehicle treated control group (C). The tumor model used in this assay is Madison 109 Lung Carcinoma (intramuscular) in unknown mice

[1] = dose: 5.5 mg/kg/injection, schedule: Q01DX005 (ip), vehicle: water
[2] = dose: 52.5 mg/kg/injection, schedule: Q01DX005 (ip), vehicle: water
[3] = dose: 10.0 mg/kg/injection, schedule: Q01DX009 (ip), vehicle: water
[4] = dose: 0.1 mg/kg/injection, schedule: Q01DX009 (ip), vehicle: saline
[5] = dose: 0.2 mg/kg/injection, schedule: Q01DX009 (ip), vehicle: saline
[6] = dose: 0.4 mg/kg/injection, schedule: Q01DX009 (ip), vehicle: saline
[7] = dose: 0.8 mg/kg/injection, schedule: Q01DX009 (ip), vehicle: saline

Measured: T/C

O=[N+]([O-])c1ccc(Cl)cc1[N+](=O)[O-]
inactive: dose: 10.0 mg/kg/injection, schedule: Q02DX009 (ip), vehicle: water 121 % of control | dose: 20.0 mg/kg/injection, schedule: Q02DX009 (ip), vehicle: water 118 % of control | dose: 80.0 mg/kg/injection, schedule: Q02DX009 (ip), vehicle: water 119 % of control

OC(CBr)C(O)C(O)C(O)CBr (stereo not given)
inactive: dose: 25.0 mg/kg/injection, schedule: Q01DX009 (ip), vehicle: Klucel (hydroxypropylcellulose) (HPC) 94 % of control | dose: 50.0 mg/kg/injection, schedule: Q01DX009 (ip), vehicle: Klucel (hydroxypropylcellulose) (HPC) 123 % of control | dose: 100.0 mg/kg/injection, schedule: Q01DX009 (ip), vehicle: Klucel (hydroxypropylcellulose) (HPC) 117 % of control

CC(=O)c1cccc(NC2C(N)C(NC(=O)N(C)C)(C(C)O)C(C)(O)C2(O)COC(=O)c2c(C)cccc2O)c1 (stereo not given)
inactive: dose: 0.05 mg/kg/injection, schedule: Q01DX009 (ip), vehicle: other 111 % of control | dose: 0.3 mg/kg/injection, schedule: Q01DX009 (ip), vehicle: other 96 % of control | dose: 0.6 mg/kg/injection, schedule: Q01DX009 (ip), vehicle: other 119 % of control

CC1OC(O[C@H]2/C=C/C=C/C=C/C=C/C=C/C=C/C=C/[C@H](C)[C@@H](O)[C@@H](C)[C@H](C)OC(=O)C[C@H](O)C[C@H](O)CC[C@@H](O)[C@H](O)C[C@H](O)C[C@]3(O)C[C@H](O)[C@@H](C(=O)O)[C@H](C2)O3)C(O)C(N)C1O (stereo not given in full)
inactive: dose: 6.25 mg/kg/injection, schedule: Q01DX009 (ip), vehicle: saline with Tween-80 108 % of control | dose: 12.5 mg/kg/injection, schedule: Q01DX009 (ip), vehicle: saline with Tween-80 118 % of control | dose: 25.0 mg/kg/injection, schedule: Q01DX009 (ip), vehicle: saline with Tween-80 88 % of control | dose: 50.0 mg/kg/injection, schedule: Q01DX009 (ip), vehicle: saline with Tween-80 110 % of control | dose: 100.0 mg/kg/injection, schedule: Q01DX009 (ip), vehicle: saline with Tween-80 93 % of control

O=c1[nH]cc(F)c(=O)[nH]1
inactive: dose: 5.0 mg/kg/injection, schedule: Q01DX009 (ip), vehicle: saline 94 % of control | dose: 10.0 mg/kg/injection, schedule: Q01DX009 (ip), vehicle: saline 88 % of control | dose: 15.0 mg/kg/injection, schedule: Q01DX009 (ip), vehicle: saline 123 % of control | dose: 20.0 mg/kg/injection, schedule: Q01DX009 (ip), vehicle: saline 113 % of control

COc1cccc2c1C(=O)c1c(O)c3c(c(O)c1C2=O)CC(O)(C(C)=O)CC3OC1CC(N)C(O)C(C)O1 (stereo not given)
inactive: [1] 123 % of control | dose: 8.0 mg/kg/injection, schedule: Q01DX005 (ip), vehicle: water 123 % of control | dose: 16.5 mg/kg/injection, schedule: Q01DX005 (ip), vehicle: water 119 % of control and 120 % of control | dose: 24.0 mg/kg/injection, schedule: Q01DX005 (ip), vehicle: water 73 % of control | dose: 27.5 mg/kg/injection, schedule: Q01DX005 (ip), vehicle: water 52 % of control | dose: 31.5 mg/kg/injection, schedule: Q01DX005 (ip), vehicle: water 123 % of control | dose: 40.0 mg/kg/injection, schedule: Q01DX005 (ip), vehicle: water 114 % of control | [2] 114 % of control

NC(=O)c1cn[nH]c1N
inactive: dose: 50.0 mg/kg/injection, schedule: Q01DX009 (ip), vehicle: other 97 % of control | dose: 100.0 mg/kg/injection, schedule: Q01DX009 (ip), vehicle: other 94 % of control | dose: 200.0 mg/kg/injection, schedule: Q01DX009 (ip), vehicle: other 92 % of control | dose: 400.0 mg/kg/injection, schedule: Q01DX009 (ip), vehicle: other 102 % of control

C[C@@H]1C[C@@H]([C@H](O)CC2CC(=O)NC(=O)C2)C(=O)[C@@H](C)C1
inactive: [3] 94 % of control | dose: 20.0 mg/kg/injection, schedule: Q01DX009 (ip), vehicle: water 100 % of control

O=[N+]([O-])c1ccc(Cl)c([N+](=O)[O-])c1
inactive: [3] 119 % of control | dose: 40.0 mg/kg/injection, schedule: Q01DX001 (ip), vehicle: water 116 % of control | dose: 40.0 mg/kg/injection, schedule: Q01DX009 (ip), vehicle: water 119 % of control | dose: 80.0 mg/kg/injection, schedule: Q01DX001 (ip), vehicle: water 100 % of control | dose: 80.0 mg/kg/injection, schedule: Q01DX009 (ip), vehicle: water 109 % of control | dose: 160.0 mg/kg/injection, schedule: Q01DX001 (ip), vehicle: water 109 % of control | dose: 160.0 mg/kg/injection, schedule: Q01DX009 (ip), vehicle: water 116 % of control | dose: 320.0 mg/kg/injection, schedule: Q01DX001 (ip), vehicle: water 119 % of control | dose: 640.0 mg/kg/injection, schedule: Q01DX001 (ip), vehicle: water 90 % of control

Nc1n[nH]c(N)n1
inactive: dose: 300.0 mg/kg/injection, schedule: Q01DX009 (ip), vehicle: water 118 % of control | dose: 500.0 mg/kg/injection, schedule: Q01DX009 (ip), vehicle: water 118 % of control | dose: 600.0 mg/kg/injection, schedule: Q01DX009 (ip), vehicle: water 100 % of control

C/C(=N/N=C(N)N)c1ccc(NC(=O)Nc2ccc(/C(C)=N/N=C(N)N)cc2)cc1
inactive: dose: 25.0 mg/kg/injection, schedule: Q01DX009 (ip), vehicle: water 115 % of control | dose: 50.0 mg/kg/injection, schedule: Q01DX009 (ip), vehicle: water 106 % of control

C1CN1c1nc(N2CC2)nc(N2CC2)n1
inactive: dose: 0.02 mg/kg/injection, schedule: Q01DX009 (ip), vehicle: saline 101 % of control | dose: 0.05 mg/kg/injection, schedule: Q01DX009 (ip), vehicle: saline 110 % of control | [4] 112 % of control | [5] 102 % of control

CSCS(=O)C[C@H](CO)NC(=O)/C=C/c1c(C)[nH]c(=O)[nH]c1=O (stereo not given in full)
inactive: dose: 0.02 mg/kg/injection, schedule: Q01DX009 (ip), vehicle: water 89 % of control | dose: 0.05 mg/kg/injection, schedule: Q01DX009 (ip), vehicle: water 97 % of control | dose: 0.1 mg/kg/injection, schedule: Q01DX009 (ip), vehicle: water 91 % of control | dose: 0.2 mg/kg/injection, schedule: Q01DX009 (ip), vehicle: water 94 % of control

N[C@@H](Cc1ccc(N(CCCl)CCCl)cc1)C(=O)O
inactive: [5] 102 % of control | [6] 100 % of control | dose: 0.6 mg/kg/injection, schedule: Q01DX009 (ip), vehicle: saline 100 % of control | [7] 111 % of control | dose: 1.0 mg/kg/injection, schedule: Q01DX009 (ip), vehicle: saline 105 % of control

COc1cccc2c1C(=O)c1c(O)c3c(c(O)c1C2=O)CC(O)(C(=O)CO)CC3OC1CC(N)C(O)C(C)O1 (stereo not given)
inactive: [1] 100 % of control | [2] 102 % of control

CO[C@@]12[C@H](COC(N)=O)C3=C(C(=O)C(C)=C(N)C3=O)N1C[C@@H]1N[C@@H]12
inactive: [4] 106 % of control | [5] 96 % of control | [6] 108 % of control | [7] 109 % of control

O=C(O)CCCc1ccc(N(CCCl)CCCl)cc1
inactive: dose: 1.5 mg/kg/injection, schedule: Q01DX009 (ip), vehicle: saline 105 % of control

Cc1c(N)nc([C@H](CC(N)=O)NC[C@H](N)C(N)=O)nc1C(=O)N[C@H](C(=O)N[C@H](C)[C@@H](O)[C@H](C)C(=O)N[C@H](C(=O)NCCc1nc(-c2nc(C(=O)NCCC[S+](C)C)cs2)cs1)[C@@H](C)O)C(OC1OC(CO)C(O)C(O)C1OC1OC(CO)C(O)C(OC(N)=O)C1O)c1cnc[nH]1 (stereo not given in full)
inactive: dose: 2.5 mg/kg/injection, schedule: Q04DX003 (ip), vehicle: saline 120 % of control | dose: 5.0 mg/kg/injection, schedule: Q04DX003 (ip), vehicle: saline 123 % of control | dose: 20.0 mg/kg/injection, schedule: Q04DX003 (ip), vehicle: saline 108 % of control | dose: 30.0 mg/kg/injection, schedule: Q04DX003 (ip), vehicle: saline 100 % of control
